According to paper PMC10349806 (Nature Communications, 2023):
Where “and” joins values, the source holds several entries; their conditions need not be identical. Equal values may be shown once.

Assays:
PfCRT variant E95A = molecular target: T1, PfCRT variant E95A (Plasmodium falciparum, UniProt Q9N623, A220S/E95A/I356T/K76T/M74I/N326S/N75E/Q271E/R371I); assay: CQ uptake assay, oocytes expressing E95A; assay type: cell-based
T1 sequence (Q9N623 1-424 M74I/N75E/K76T/E95A/A220S/Q271E/N326S/I356T/R371I): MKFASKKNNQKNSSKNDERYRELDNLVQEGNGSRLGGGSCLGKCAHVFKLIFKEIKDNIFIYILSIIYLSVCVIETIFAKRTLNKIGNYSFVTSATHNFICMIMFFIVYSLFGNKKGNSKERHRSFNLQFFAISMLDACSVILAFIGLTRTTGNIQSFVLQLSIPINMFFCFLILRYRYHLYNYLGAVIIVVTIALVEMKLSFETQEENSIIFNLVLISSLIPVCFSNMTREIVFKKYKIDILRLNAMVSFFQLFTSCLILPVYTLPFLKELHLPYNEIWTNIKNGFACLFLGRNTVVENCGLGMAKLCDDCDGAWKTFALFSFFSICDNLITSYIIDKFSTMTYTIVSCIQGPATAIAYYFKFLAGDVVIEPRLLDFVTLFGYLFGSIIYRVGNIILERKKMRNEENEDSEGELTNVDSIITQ
Description: (§1) Site-directed mutagenesis of PfCRT^Dd2 was performed as described using the megaprimer method with overlap extension[21],[54]. The primer pairs used are listed in Supplementary Table 6. Please note that a codon-optimized and oocyte-adapted version of PfCRT^Dd2 was used[22] (Supplementary Fig. 16). The resulting DNA fragment was cloned into the SP64T expression vector and verified by sequencing.
Oocytes were obtained as described previously. Briefly, adult (>2 years old) female X. laevis frogs (NASCO) were anesthetized in a cooled solution of ethyl 3-amino benzoate methanesulfonate (0.1%, w/v), followed by a surgical removal of parts of the ovary. The ovary lobes were carefully dissected and small pieces of oocytes were incubated in Ca^2+-free ND96 buffer (96 mM NaCl, 2 mM KCl, 1 mM MgCl2 buffered with 5 mM HEPES/NaOH, pH 7.5) supplemented with collagenase D (0.1%, w/v; Roche), BSA (0.5%, w/v), and 9 mm Na2HPO4 at 18 °C for 14-16 h while gentle shaking. After incubation, the oocytes were carefully washed several times with ND96 buffer (96 mM NaCl, 2 mM KCl, 1.8 mM CaCl2, 1 mM MgCl2 buffered with 5 mM HEPES/NaOH, pH 7.5) supplemented with 100 mg l^−1 gentamycin). Defolliculated and healthy-looking stage V-VI oocytes were manually selected for RNA microinjection. The RNA was generated as following: The codon-optimized sequences of PfCRT variants were cloned into the pSP64T expression vector. After vector linearization using the restriction endonucleases BamHI or SalI (New England Biolabs), transcription was performed using the in vitro SP6 mMessage mMachine Kit (Ambion)[34]. The obtained RNA was kept at −80 °C and diluted with nuclease-free water to a concentration of 0.6 μg μl^−1. […]
Drug uptake assays were performed as described previously[21],[22],[24],[34]. […] The radioactivity of each sample was measured using a liquid scintillation analyzer Tri-Carb 4910 TR (PerkinElmer). Oocytes that were injected with water instead of RNA were analyzed in parallel, representing the uptake of a drug by diffusion and/or endogenous permeation pathways. […]

PfCRT variant W280A = assay: CQ uptake assay, oocytes expressing W280A; assay type: cell-based, Plasmodium falciparum
Description: as §1
(§2) Oocytes were obtained as described previously. Briefly, adult (>2 years old) female X. laevis frogs (NASCO) were anesthetized in a cooled solution of ethyl 3-amino benzoate methanesulfonate (0.1%, w/v), followed by a surgical removal of parts of the ovary. The ovary lobes were carefully dissected and small pieces of oocytes were incubated in Ca^2+-free ND96 buffer (96 mM NaCl, 2 mM KCl, 1 mM MgCl2 buffered with 5 mM HEPES/NaOH, pH 7.5) supplemented with collagenase D (0.1%, w/v; Roche), BSA (0.5%, w/v), and 9 mm Na2HPO4 at 18 °C for 14-16 h while gentle shaking. After incubation, the oocytes were carefully washed several times with ND96 buffer (96 mM NaCl, 2 mM KCl, 1.8 mM CaCl2, 1 mM MgCl2 buffered with 5 mM HEPES/NaOH, pH 7.5) supplemented with 100 mg l^−1 gentamycin). Defolliculated and healthy-looking stage V-VI oocytes were manually selected for RNA microinjection. The RNA was generated as following: The codon-optimized sequences of PfCRT variants were cloned into the pSP64T expression vector. After vector linearization using the restriction endonucleases BamHI or SalI (New England Biolabs), transcription was performed using the in vitro SP6 mMessage mMachine Kit (Ambion)[34]. The obtained RNA was kept at −80 °C and diluted with nuclease-free water to a concentration of 0.6 μg μl^−1. Precision-bore glass capillary tubes (3.5-inch glass capillaries; Drummond Scientific Co.) were pulled on a vertical puller (P-87 Flaming/Brown micropipette puller, Sutter Instrument Co.), graduated, and placed on a microinjector (Nanoject II Auto-Nanoliter Injector, Drummond Scientific Co.). 50 nl of nuclease-free water alone (control oocytes) or 50 nl of 0.6 μg μl^−1 RNA were injected under stereomicroscopic control. Injected oocytes were incubated for 46–72 h at 18 °C with twice-daily buffer changes before usage in experiments.
(§3) Drug uptake assays were performed as described previously[21],[22],[24],[34]. […] The direction of radio-labeled drug transport is here from the mostly acidic extracellular solution (pH 4.5 or 6.0, as indicated) into the oocyte cytosol (pH ∼ 7.2), which corresponds to the efflux of drug from the acidic digestive vacuole (pH 5.2) into the parasite cytoplasm (pH 7.2). The topology of PfCRT in the oolemma is such that both the N- and C-terminus face the extracellular milieu[3],[22]. In the parasite, the N- and C-terminus face the lumen of the digestive vacuole. CQ uptake kinetics were performed by incubating oocytes in ND96 buffer adjusted to a pH of 4.5, 5.0, 5.5, or 6.0 and supplemented with 50 nM [^3H]CQ and one of 7 different CQ concentrations (10 µM, 50 µM, 100 µM, 200 µM, 300 µM, 400 µM, 500 µM CQ). The reaction was stopped at the 60 min time point, which is in the linear uptake range[22],[34] (Supplementary Fig. 17). For determination of the amount of drug uptake for each oocyte, the reaction medium was removed and the oocytes were washed three times with 2 ml of ice-cold ND96 buffer. Each oocyte was individually transferred to a scintillation vial containing 5% sodium dodecyl sulfate (200 μl) for lysis. The radioactivity of each sample was measured using a liquid scintillation analyzer Tri-Carb 4910 TR (PerkinElmer). Oocytes that were injected with water instead of RNA were analyzed in parallel, representing the uptake of a drug by diffusion and/or endogenous permeation pathways. The resulting value represents the “background“ level of drug accumulation in oocytes (in-depth discussion in[22]). […]

PfCRT variant F319A = assay: CQ uptake assay, oocytes expressing F319A; assay type: cell-based, Plasmodium falciparum
Description: as §1, §2
Drug uptake assays were performed as described previously[21],[22],[24],[34]. […] The direction of radio-labeled drug transport is here from the mostly acidic extracellular solution (pH 4.5 or 6.0, as indicated) into the oocyte cytosol (pH ∼ 7.2), which corresponds to the efflux of drug from the acidic digestive vacuole (pH 5.2) into the parasite cytoplasm (pH 7.2). The topology of PfCRT in the oolemma is such that both the N- and C-terminus face the extracellular milieu[3],[22]. In the parasite, the N- and C-terminus face the lumen of the digestive vacuole. CQ uptake kinetics were performed by incubating oocytes in ND96 buffer adjusted to a pH of 4.5, 5.0, 5.5, or 6.0 and supplemented with 50 nM [^3H]CQ and one of 7 different CQ concentrations (10 µM, 50 µM, 100 µM, 200 µM, 300 µM, 400 µM, 500 µM CQ). The reaction was stopped at the 60 min time point, which is in the linear uptake range[22],[34] (Supplementary Fig. 17). […] The radioactivity of each sample was measured using a liquid scintillation analyzer Tri-Carb 4910 TR (PerkinElmer). Oocytes that were injected with water instead of RNA were analyzed in parallel, representing the uptake of a drug by diffusion and/or endogenous permeation pathways. […]

PfCRT variant E207Y = assay: CQ uptake assay, oocytes expressing E207Y; assay type: cell-based, Plasmodium falciparum
Description: as §1, §2, §3

[1] = W280A, 50 µM CQ, 1 h, mean ± SEM
[2] = pH 4.5, single replicates, Fig 1d left
[3] = pH 6.0, single replicates, Fig 1d left
[4] = F319A, 50 µM CQ, 1 h, mean ± SEM
[5] = E207Y, 50 µM CQ, 1 h, mean ± SEM

## CCN(CC)CCCC(C)Nc1ccnc2cc(Cl)ccc12 (centres unmarked) [CQ, chloroquine]
PfCRT variant E95A; 50 µM CQ, 1 h, mean ± SEM
  Activity at pH 4.5: 1.21 ± 0.20 pmol h-1 oocyte-1
  Activity at pH 6.0: 2.74 ± 0.74 pmol h-1 oocyte-1
PfCRT variant E95A; CQ transport at pH 4.5 / pH 6.0
  R-value: 0.41 ± 0.11
PfCRT variant W280A; [1]
  Activity at pH 4.5: 0.92 ± 0.11 pmol h-1 oocyte-1
  Activity at pH 6.0: 2.64 ± 0.28 pmol h-1 oocyte-1
PfCRT variant W280A; W280A, CQ transport at pH 4.5 / pH 6.0
  R-value: 0.35 ± 0.03
PfCRT variant W280A; [2]
  W280A transport activity pH 4.5: 0.97 pmol oocyte-1 h-1 and 0.58 pmol oocyte-1 h-1 and 1.22 pmol oocyte-1 h-1 and 0.92 pmol oocyte-1 h-1
PfCRT variant W280A; pH 4.5 vs pH 6.0, Fig 1d left
  W280A R-value: 0.31 and 0.28 and 0.38 and 0.44
PfCRT variant W280A; [3]
  W280A transport activity pH 6.0: 3.17 pmol oocyte-1 h-1 and 2.06 pmol oocyte-1 h-1 and 3.24 pmol oocyte-1 h-1 and 2.09 pmol oocyte-1 h-1
PfCRT variant F319A; [4]
  Activity at pH 4.5: 0.90 ± 0.25 pmol h-1 oocyte-1
  Activity at pH 6.0: 3.64 ± 0.45 pmol h-1 oocyte-1
PfCRT variant F319A; F319A, CQ transport at pH 4.5 / pH 6.0
  R-value: 0.26 ± 0.07
PfCRT variant F319A; [2]
  F319A transport activity pH 4.5: 0.43 pmol oocyte-1 h-1 and 1.48 pmol oocyte-1 h-1 and 0.80 pmol oocyte-1 h-1
PfCRT variant F319A; [3]
  F319A transport activity pH 6.0: 4.19 pmol oocyte-1 h-1 and 3.55 pmol oocyte-1 h-1 and 3.19 pmol oocyte-1 h-1
PfCRT variant E207Y; [5]
  Activity at pH 4.5: 1.70 ± 0.21 pmol h-1 oocyte-1
  Activity at pH 6.0: 1.84 ± 0.21 pmol h-1 oocyte-1
PfCRT variant E207Y; E207Y, CQ transport at pH 4.5 / pH 6.0
  R-value: 0.92 ± 0.06
PfCRT variant E207Y; pH 4.5, individual replicates, Fig 6b
  E207Y transport activity pH 4.5: 2.50 pmol oocyte-1 h-1 and 1.56 pmol oocyte-1 h-1 and 1.84 pmol oocyte-1 h-1 and 1.50 pmol oocyte-1 h-1 and 1.10 pmol oocyte-1 h-1
PfCRT variant E207Y; pH 6.0, individual replicates, Fig 6b
  E207Y transport activity pH 6.0: 2.64 pmol oocyte-1 h-1 and 1.70 pmol oocyte-1 h-1 and 1.99 pmol oocyte-1 h-1 and 1.61 pmol oocyte-1 h-1 and 1.24 pmol oocyte-1 h-1
PfCRT variant E207Y; ratio of activity pH 4.5 / pH 6.0
  E207Y R-value: 0.95 and 0.92 and 0.93 and 0.89
